Experimental findings from ChEMBL document CHEMBL4619780, “Structure-Activity Relationship Studies of Retro-1 Analogues against Shiga Toxin” (J Med Chem, 2020) are described below.

A short description of assay [1]: cells. The assay is classed as cell-based. The following applies: Escherichia coli, HeLa.
A short description of assay [2]: cells. The assay is classed as cell-based. The following applies: Escherichia coli, HeLa. The source holds these as a separate data set.
Assay [3] in a line: Inhibition of Escherichia coli shiga toxin.
Assay [4] is described as follows: cells. The assay is classed as cell-based. The settings on record: Escherichia coli, HeLa. This is another data set of the same source.
The nature of assay [5]: cells. The class given is cell-based. The settings on record: Escherichia coli, HeLa. This is another data set of the same source.

Molecules are shown by their SMILES.

For orientation: EC50 means the midpoint of the concentration-response curve. A lower EC50 goes with a more potent agent. On to `CC[C@@H](C(=O)[C@@H](C)[C@@H](O)[C@H](C)CCc1ccc(C)c(O)c1C(=O)O)[C@H]1O[C@](CC)([C@H]2CC[C@](O)(CC)[C@H](C)O2)C[C@@H]1C` [LASALOCID], for which the EC50 in “cells [1]” was 2000 nM. Take `CC1CCC(N2CC(=O)Nc3ccc(Br)cc3C2c2ccccc2)C1` (mixture of isomers): the EC50 in “cells [2]” stood at 1.29 µM. Turning to `C#CCCN1CC(=O)Nc2ccc(Br)cc2C1c1ccccc1` (configuration not stated), in the assay “cells [2]”, a half-maximal effect (EC50) was put at 6.5 µM. `O=C1CN(C2CCCC2)C(c2ccccc2)c2cc(F)ccc2N1` (configuration not stated) registered an EC50 in “cells [2]” of 2.29 µM. The compound `CCCN1CC(=O)Nc2ccc(Cl)cc2C1c1ccccc1` (configuration not stated) displayed an EC50 in “cells [2]” of 12.8 µM.

The compound `CCCN1CC(=O)Nc2ccc(Br)cc2C1c1ccccc1` (configuration not stated) came in with an EC50 in “cells [2]” of 3.98 µM. Compound `CCCN1CC(=O)Nc2ccc(N=[N+]=[N-])cc2C1c1ccccc1` (configuration not stated) returned an EC50 in “cells [2]” of 11.1 µM. In the case of `O=C1CN(C2CCCC2)C(c2ccccc2)c2cc(Cl)ccc2N1` (configuration not stated), the 50% effective concentration (EC50) in the assay “cells [2]” was found to be 0.844 µM.

With `Cc1cccc(C)c1Nc1c(-c2cc(Br)ccc2O)nc2[nH]cnn12`, the EC50 in assay [3] was 25 µM. In turn, `CCCN1CC(=O)Nc2ccc(Br)cc2C1c1ccc(F)cc1F` (configuration not stated) registered an EC50 in “cells [2]” of 12.8 µM.

For `O=C1CN(C2CCCCC2)C(c2ccccc2)c2cc(Br)ccc2N1` (configuration not stated), the 50% effective concentration (EC50) in “cells [2]” worked out at 4.7 µM.

Take `CCCN1CC(=O)Nc2ccc(Br)cc2C1c1ccccc1F` (configuration not stated): in “cells [2]”, a half-maximal response (EC50) required 3.87 µM. The same measure, in the same setting: as for `CCCN1CC(=O)Nc2ccc(I)cc2C1c1ccccc1` (configuration not stated), the figure is 1.98 µM; as for `CC(C1CC1)N1CC(=O)Nc2ccc(Br)cc2C1c1ccccc1` (mixture of isomers), 5.16 µM. Take `C[C@H]1CCC/C=C/[C@@H]2C[C@H](O)C[C@H]2[C@H](O)/C=C/C(=O)O1` [BREFELDIN A]: the EC50 in the assay “cells [4]” stood at 5 µM.

In the case of `CC1(C)CC(/C=C/c2ccccc2)=Nc2ccccc2N1`, the 50% effective concentration (EC50) in assay [3] was 50 µM.

`O=[N+]([O-])c1ccc(CSc2ncnc3c2ncn3[C@@H]2O[C@H](CO)[C@@H](O)[C@H]2O)cc1` [NITROBENZYLMERCAPTOPURINE RIBONUCLEOSIDE] came in with an EC50 in assay [3] of 25 to 100 µM. In “cells [2]”, `CCN1CC(=O)Nc2ccc(Br)cc2C1c1ccccc1` (configuration not stated) had an EC50 of 8.81 µM. On to `CC1CCCC1N1CC(=O)Nc2ccc(Br)cc2C1c1ccccc1` (mixture of isomers), for which a half-maximal effect in “cells [2]” (EC50) was put at 3.91 µM. As to `O=C1CN(C2CCCC2)C(c2ccccc2)c2cc(I)ccc2N1` (racemic), the EC50 in the assay “cells [2]” was determined as 0.281 µM. With `CC/C(=C(\c1ccccc1)c1ccc(OCCN(C)C)cc1)c1ccccc1` [TAMOXIFEN], the EC50 in assay [3] was in the range of 2 to 10 µM. Turning to `CCCC(=O)N1CC(=O)Nc2ccc(Br)cc2C1c1ccccc1` (configuration not stated), in the assay “cells [2]”, the EC50 was determined as 10.9 µM. In “cells [5]”, `Cc1ccc(C2Nc3ccccc3C(=O)N2c2ccccc2)s1` (configuration not stated) registered an EC50 of 27.3 µM. Turning to `O=C1CN(C2CCCC2)C(c2ccccc2)c2ccccc2N1` (configuration not stated), the EC50 in the assay “cells [2]” came out at 6.11 µM.

`O=C1CN(C2CCCC2)C(c2ccccc2)c2cc(Br)ccc2N1` (configuration not stated) yielded an EC50 in the assay “cells [2]” of 0.6 µM.

As to `O=C1CN(C2CCCC2)[C@H](c2ccccc2)c2cc(I)ccc2N1`, in the assay “cells [2]”, the EC50 came out at 0.09 µM. Compound `CCC(=O)N1CC(=O)Nc2ccc(Br)cc2C1c1ccccc1` (racemic) showed an EC50 in “cells [5]” of 6.2 µM.
